Experimental findings from patent US8455475B2 (Gruenenthal GmbH, priority 2009, dated 2013) are described below.

The target in test [1] is T1, human B1R (bradykinin receptor 1) (Homo sapiens, UniProt P46663).
T1 construct: expressed in transfected cells; host or cells: CHO K1 cells
T1 sequence (P46663 1-353): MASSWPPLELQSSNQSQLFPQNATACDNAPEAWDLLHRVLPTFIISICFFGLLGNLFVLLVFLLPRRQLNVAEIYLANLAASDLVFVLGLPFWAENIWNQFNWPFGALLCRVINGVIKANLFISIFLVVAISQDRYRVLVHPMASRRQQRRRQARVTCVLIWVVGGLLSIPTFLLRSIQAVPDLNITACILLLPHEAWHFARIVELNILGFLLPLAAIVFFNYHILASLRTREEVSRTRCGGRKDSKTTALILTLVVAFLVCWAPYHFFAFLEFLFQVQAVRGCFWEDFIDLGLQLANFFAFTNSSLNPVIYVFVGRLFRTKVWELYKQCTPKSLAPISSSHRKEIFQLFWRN
Put plainly: FLIPR Ca2+ assay (Fluo-4) on CHO K1 cells stably transfected with the human B1R gene (hB1R cells): % inhibition at 10 μM / IC50, agonist Lys-Des-Arg9-bradykinin. It is filed as cell-based. As to conditions: for inhibition at 10 µM: CHO-K1, human B1R. A digest of the protocol:
(§1)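 Using a two-addition FLIPR protocol, compound (10 μM for % values; concentration series for IC50) was preincubated 10–20 min with Fluo-4-loaded B1R-expressing CHO K1 cells before EC80 agonist challenge. Suppression of Ca2+ inflow, read as peak fluorescence, is expressed relative to maximum achievable inhibition; duplicate/triplicate, ≥2 independent experiments.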

Test [2] has as its target T2, rat B1R (bradykinin receptor 1) (Rattus norvegicus, UniProt P97583).
T2 construct: expressed in transfected cells; host or cells: CHO K1 cells
T2 sequence (P97583 1-337): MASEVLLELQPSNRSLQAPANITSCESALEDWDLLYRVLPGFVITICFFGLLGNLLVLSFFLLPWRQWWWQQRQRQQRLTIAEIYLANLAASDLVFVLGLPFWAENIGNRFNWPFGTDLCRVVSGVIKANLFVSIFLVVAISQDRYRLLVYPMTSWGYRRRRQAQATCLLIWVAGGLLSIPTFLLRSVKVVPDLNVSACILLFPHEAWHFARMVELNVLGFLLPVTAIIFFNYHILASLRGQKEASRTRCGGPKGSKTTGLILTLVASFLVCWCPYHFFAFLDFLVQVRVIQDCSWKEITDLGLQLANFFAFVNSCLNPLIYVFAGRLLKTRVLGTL
As to the kind of experiment: FLIPR Ca2+ assay (Fluo-4) on CHO K1 cells stably transfected with the B1R gene of the rat (rB1R cells): % inhibition at 10 μM / IC50, agonist Des-Arg9-bradykinin. Format: cell-based. As to conditions: for inhibition at 10 µM: CHO-K1, rat B1R. The method in brief:
as §1

As to `O=C(NC1CCc2ccc(C(=O)N3CCC4(CCN(c5ccncc5)CC4)C3)cc21)c1cc(C(F)(F)F)ccc1Cl` (centres unmarked) [IND_CC-251, 2-Chloro-N-[6-(8-pyridin-4-yl-2,8-diazaspiro[4.5]decane-2-carbonyl)-2,3-dihydro-1H-inden-1-yl]-5-(trifluoromethyl)-benzamide], the inhibition at 10 µM is 100% in test [1] and 99% in test [2].
On to `CC1(C)CC(NC(=O)c2cc(F)ccc2Cl)c2cc(C(=O)N3CCC4(CC3)CCN(c3ccncc3)CC4)ccc21` (centres unmarked) [IND_CC-252, 2-Chloro-N-[3,3-dimethyl-6-(3-pyridin-4-yl-3,9-diazaspiro[5.5]undecane-9-carbonyl)-1,2-dihydro-inden-1-yl]-5-fluoro-benzamide], for which the values for the inhibition at 10 µM in test [1] and in test [2] were 100% and 102%, respectively.
The corresponding values for `O=C(NC1CCc2ccc(C(=O)N3CCC4(CCN(c5ccncc5)CC4)C3)cc21)c1cc(F)ccc1Cl` (centres unmarked) [IND_CC-253, 2-Chloro-5-fluoro-N-[6-(8-pyridin-4-yl-2,8-diazaspiro[4.5]decane-2-carbonyl)-2,3-dihydro-1H-inden-1-yl]-benzamide] are 100% and 100%.
The corresponding values for `CC1(C)CC(NC(=O)c2cccc(C(F)(F)F)c2Cl)c2cc(C(=O)N3CCC4(CC3)CCN(c3ccncc3)CC4)ccc21` (centres unmarked) [IND_CC-254, 2-Chloro-N-[3,3-dimethyl-6-(3-pyridin-4-yl-3,9-diazaspiro[5.5]undecane-9-carbonyl)-1,2-dihydro-inden-1-yl]-3-(trifluoromethyl)-benzamide] are 97% and 105%.
The corresponding values for `O=C(NC1CCc2ccc(C(=O)N3CCC4(CCN(c5ccncc5)CC4)C3)cc21)c1cccc(C(F)(F)F)c1Cl` (centres unmarked) [IND_CC-255, 2-Chloro-N-[6-(8-pyridin-4-yl-2,8-diazaspiro[4.5]decane-2-carbonyl)-2,3-dihydro-1H-inden-1-yl]-3-(trifluoromethyl)-benzamide] are 100% and 100%.
Turning to `CC1(C)CC(NS(=O)(=O)Cc2ccccc2C(F)(F)F)c2cc(C(=O)N3CCC4(CC3)CCN(c3ccncc3)CC4)ccc21` (centres unmarked) [IND_CC-256, N-[3,3-Dimethyl-6-(3-pyridin-4-yl-3,9-diazaspiro[5.5]undecane-9-carbonyl)-1,2-dihydro-inden-1-yl]-1-[2-(trifluoromethyl)-phenyl]-methanesulfonic acid amide], the inhibition at 10 µM amounted to 99% in test [1] and 100% in test [2].
With `O=C(c1ccc2c(c1)C(NS(=O)(=O)Cc1ccccc1C(F)(F)F)CC2)N1CCC2(CCN(c3ccncc3)CC2)C1` (centres unmarked) [IND_CC-258, N-[6-(8-Pyridin-4-yl-2,8-diazaspiro[4.5]decane-2-carbonyl)-2,3-dihydro-1H-inden-1-yl]-1-[2-(trifluoromethyl)-phenyl]-methanesulfonic acid amide], the inhibition at 10 µM is 100% in test [1] and 95% in test [2].
The corresponding values for `Cc1cccc(Cl)c1S(=O)(=O)NC1CC(C)(C)c2ccc(C(=O)N3CCC4(CC3)CCN(c3ccncc3)CC4)cc21` (centres unmarked) [IND_CC-259, 2-Chloro-N-[3,3-dimethyl-6-(3-pyridin-4-yl-3,9-diazaspiro[5.5]undecane-9-carbonyl)-1,2-dihydro-inden-1-yl]-6-methyl-benzenesulfonic acid amide] are 99% and 100%.
The corresponding values for `CC1(C)CC(NS(=O)(=O)CCc2ccccc2Cl)c2cc(C(=O)N3CCC4(CC3)CCN(c3ccncc3)CC4)ccc21` (centres unmarked) [IND_CC-260, 2-(2-Chlorophenyl)-N-[3,3-dimethyl-6-(3-pyridin-4-yl-3,9-diazaspiro[5.5]-undecane-9-carbonyl)-1,2-dihydro-inden-1-yl]-ethanesulfonic acid amide] are 100% and 100%.
The corresponding values for `CN(C(=O)c1ccc(F)cc1Cl)C1CCc2ccc(C(=O)N3CCC4(CC3)CCN(c3ccncc3)CC4)cc21` (centres unmarked) [IND_CC-261, 2-Chloro-4-fluoro-N-methyl-N-[6-(9-pyridin-4-yl-3,9-diazaspiro[5.5]undecane-3-carbonyl)-2,3-dihydro-1H-inden-1-yl]-benzamide] are 100% and 103%.
For `O=C(NC1CCc2ccc(C(=O)N3CCC4(CC3)CCN(c3ccncc3)CC4)cc21)c1ccc(F)cc1Cl` (centres unmarked) [IND_CC-262, 2-Chloro-4-fluoro-N-[6-(9-pyridin-4-yl-3,9-diazaspiro[5.5]undecane-3-carbonyl)-2,3-dihydro-1H-inden-1-yl]-benzamide], the values for the inhibition at 10 µM in test [1] and in test [2] were 100% and 105%, respectively.
The corresponding values for `O=C(NC1CCc2ccc(C(=O)N3CCC4(CC3)CCN(c3ccncc3)C4)cc21)c1ccc(F)cc1Cl` (centres unmarked) [IND_CC-263, 2-Chloro-4-fluoro-N-[6-(2-pyridin-4-yl-2,8-diazaspiro[4.5]decane-8-carbonyl)-2,3-dihydro-1H-inden-1-yl]-benzamide] are 100% and 81%.
The corresponding values for `O=C(NC1CCc2ccc(C(=O)N3CCC4(CC3)CCN(c3ccncc3)C4)cc21)c1c(F)cccc1Cl` (centres unmarked) [IND_CC-264, 2-Chloro-6-fluoro-N-[6-(2-pyridin-4-yl-2,8-diazaspiro[4.5]decane-8-carbonyl)-2,3-dihydro-1H-inden-1-yl]-benzamide] are 97% and 106%.
The corresponding values for `CN(C(=O)c1cccc(Cl)c1Cl)C1CCc2ccc(C(=O)N3CCC4(CC3)CCN(c3ccncc3)CC4)cc21` (centres unmarked) [IND_CC-265, 2,3-Dichloro-N-methyl-N-[6-(9-pyridin-4-yl-3,9-diazaspiro[5.5]undecane-3-carbonyl)-2,3-dihydro-1H-inden-1-yl]-benzamide] are 88% and 107%.
For `O=C(NC1CCc2ccc(C(=O)N3CCC4(CC3)CCN(c3ccncc3)CC4)cc21)c1cccc(Cl)c1Cl` (centres unmarked) [IND_CC-266, 2,3-Dichloro-N-[6-(9-pyridin-4-yl-3,9-diazaspiro[5.5]undecane-3-carbonyl)-2,3-dihydro-1H-inden-1-yl]-benzamide], the inhibition at 10 µM is 98% in test [1] and 106% in test [2].
As for `O=C(NC1CCc2ccc(C(=O)N3CCC4(CC3)CCN(c3ccncc3)C4)cc21)c1cccc(Cl)c1Cl` (centres unmarked) [IND_CC-267, 2,3-Dichloro-N-[6-(2-pyridin-4-yl-2,8-diazaspiro[4.5]decane-8-carbonyl)-2,3-dihydro-1H-inden-1-yl]-benzamide], the values for the inhibition at 10 µM in test [1] and in test [2] were 86% and 106%, respectively.
The corresponding values for `CN(C(=O)c1c(Cl)cccc1Cl)C1CCc2ccc(C(=O)N3CCC4(CC3)CCN(c3ccncc3)CC4)cc21` (centres unmarked) [IND_CC-268, 2,6-Dichloro-N-methyl-N-[6-(9-pyridin-4-yl-3,9-diazaspiro[5.5]undecane-3-carbonyl)-2,3-dihydro-1H-inden-1-yl]-benzamide] are 99% and 108%.
Regarding `O=C(NC1CCc2ccc(C(=O)N3CCC4(CC3)CCN(c3ccncc3)CC4)cc21)c1c(Cl)cccc1Cl` (centres unmarked) [IND_CC-269, 2,6-Dichloro-N-[6-(9-pyridin-4-yl-3,9-diazaspiro[5.5]undecane-3-carbonyl)-2,3-dihydro-1H-inden-1-yl]-benzamide], the inhibition at 10 µM came to 100% in test [1] and 107% in test [2].
The corresponding values for `O=C(NC1CCc2ccc(C(=O)N3CCC4(CC3)CCN(c3ccncc3)C4)cc21)c1c(Cl)cccc1Cl` (centres unmarked) [IND_CC-270, 2,6-Dichloro-N-[6-(2-pyridin-4-yl-2,8-diazaspiro[4.5]decane-8-carbonyl)-2,3-dihydro-1H-inden-1-yl]-benzamide] are 100% and 108%.
Take `O=C(NC1CCc2ccc(C(=O)N3CCC4(CC3)CCN(c3ccncc3)C4)cc21)c1ccccc1Cl` (centres unmarked) [IND_CC-271, 2-Chloro-N-[6-(2-pyridin-4-yl-2,8-diazaspiro[4.5]decane-8-carbonyl)-2,3-dihydro-1H-inden-1-yl]-benzamide]: the “% Inhibition (human B1R) at 10 μM” value in test [1] amounted to 100%. Besides, the “% Inhibition (rat B1R) at 10 μM” value in test [2] worked out at 106%.
`CN(C(=O)c1ccccc1Cl)C1CCc2ccc(C(=O)N3CCC4(CC3)CCN(c3ccncc3)CC4)cc21` (centres unmarked) [IND_CC-272, 2-Chloro-N-methyl-N-[6-(9-pyridin-4-yl-3,9-diazaspiro[5.5]undecane-3-carbonyl)-2,3-dihydro-1H-inden-1-yl]-benzamide]: the “% Inhibition (human B1R) at 10 μM” value in test [1] (10 µM) was 99%. Also, in test [2], the “% Inhibition (rat B1R) at 10 μM” value is 107%.
Turning to `O=C(NC1CCc2ccc(C(=O)N3CCC4(CC3)CCN(c3ccncc3)CC4)cc21)c1ccccc1Cl` (centres unmarked) [IND_CC-273, 2-Chloro-N-[6-(9-pyridin-4-yl-3,9-diazaspiro[5.5]undecane-3-carbonyl)-2,3-dihydro-1H-inden-1-yl]-benzamide], the inhibition at 10 µM in test [1] worked out at 99%; in test [2] it was 106%.

A word on the inhibition: it is the relative decrease from the control value, in per cent.
